In publication PMC6775455, “Chemoperception of Specific Amino Acids Controls Phytopathogenicity in Pseudomonas syringae pv. tomato” (mBio, 2019):

Biological target: T1, PsPto-PscA-LBD (Pseudomonas syringae group genomosp. 3, UniProt Q882Z2)
T1 construct: host E. coli BL21(DE3)
Test: isothermal titration calorimetry
Format: binding
Conditions: read-out: Mean KD (μM) ± SEM
Excerpt: isothermal titration calorimetry on PsPto-PscA-LBD

T1 sequence (Q882Z2 30-278): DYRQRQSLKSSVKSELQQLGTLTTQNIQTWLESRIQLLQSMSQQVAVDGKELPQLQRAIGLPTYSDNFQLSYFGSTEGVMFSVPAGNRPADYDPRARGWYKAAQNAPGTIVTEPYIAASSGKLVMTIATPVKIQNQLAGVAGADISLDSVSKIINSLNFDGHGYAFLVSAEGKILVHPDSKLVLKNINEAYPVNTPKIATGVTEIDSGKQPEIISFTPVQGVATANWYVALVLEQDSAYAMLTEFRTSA

Structure (SMILES)	Kd
N[C@@H](CCC(=O)O)C(=O)O [L-Glu]	3.4 ± 0.1 µM
N[C@H](CC(=O)O)C(=O)O [D-Asp]	1.2 ± 0.1 µM
N[C@@H](CC(=O)O)C(=O)O [L-Asp]	1.2 ± 0.1 µM
